According to publication PMC2074382 (British Journal of Cancer, 1996):
Where “and” joins values, the source holds several entries; their conditions need not be identical. Equal values may be shown once. Where a name gives a salt, the structure may show the parent alone.

Experiment: Pharmacokinetics (lactone form, HPLC, non-compartmental) in plasma and urine, days 1 and 4 of first course
Text: British Journal of Cancer (1996) 73, 744-750 O (C? 1996 Stockton Press All rights reserved 0007-0920/96 $12.00 Phase I and pharmacological study of the new topoisomerase I inhibitor G1147211, using a daily x 5 intravenous administration CJH Gerrits', GJ Creemers', JHM Schellens', P Wissel2, AS Th Planting', R Kunka2, K Selinger2, M de Boer-Dennert', Y Marijnen3, M Harteveld' and J Verweijl 'Department of Medical Oncology, Rotterdam Cancer Institute, Rotterdam, The Netherlands; 2Glaxo Wellcome Inc, Department of Clinical Pharmacology, NC, USA; 3Glaxo Wellcome Inc, Department of Clinical Research, Zeist, The Netherlands. Summary Topoisomerase I inhibitors are interesting anti-cancer agents with a novel mechanism of action. […] In subsequent patient cohorts the dose was escalated from 0.3 to 1.5 mg m-2 day-'. Pharmacokinetics analysis was performed on days 1 and 4 of the first course using a validated high- performance liquid chromatographic assay and non-compartmental methods. […] Its further development was stopped because of unpredictable and severe myelosuppression, gastrointestinal toxicity and haemorrhagic cystitis. In the late 1980s two discoveries brought about a renewal of interest in CPT; firstly, topoisomerase I was identified as the single cellular target of CPT (Hsiang et al., 1985; Hsiang and Liu, 1988) and, secondly, an overexpression of topoisomerase I was found in various tumour cell lines but not in normal tissues (Giovanella et al., 1989; Hirabayaski et al., 1992; Potmesil et al., 1988). Topoisomerase I is a nuclear enzyme that resolves topological problems of the torsionally strained (supercoiled) DNA (Slichenmyer et al., 1993). This is achieved by forming a covalent adduct between topoisome- rase I and the DNA, termed the cleavable complex. This catalytic intermediate creates single-strand DNA breaks, allowing the DNA molecule to rotate around the intact DNA strand at the cleavage site, leading to a relaxation of the DNA molecule and in this way replication, transcription and other DNA functions can proceed. These enzyme- bridged breaks are then resealed by topoisomerase I. CPT stabilises the cleavable complexes, thereby preventing resealing of single-strand DNA breaks in the presence of the drug (Covey et al., 1989; D'Arpa and Liu, 1989; Eng et al., 1988). Cytotoxicity is specific to the S-phase of the cell cycle because the double-strand breaks that occur during this phase are more difficult to repair in the presence of the drug (Horwitz and Horwitz, 1973). […] Other eligibility criteria included: (1) age>, 18 years; (2) an Eastern Cooperative Oncology Group (ECOG) performance status <2; (3) a predicted life expectancy of at least 3 months; (4) no previous anti-cancer therapy for at least 3 weeks (6 weeks for previous nitro- soureas or mitomycin C); (5) adequate haemato- poietic (WBC) 3 x 109 -', ANC > 1.5 x 109 1-' and platelets 100 x 10 1- 1), hepatic (bilirubin within normal limits, AST, ALT and/or alkaline phosphatase < 2.0 x normal), and renal (serum creatinine < 130 imol 1-') functions. All patients gave written informed consent.

[1] = 0.3 mg m-2, day 1, individual patients 1-3 in order
[2] = 0.3 mg m-2, day 1, mean of dose level
[3] = 0.3 mg m-2, day 4, individual patients 1-3 in order
[4] = 0.3 mg m-2, day 4, mean of dose level
[5] = 0.6 mg m-2, day 1, individual patients 4-6 in order
[6] = 0.6 mg m-2, day 1, mean of dose level
[7] = 0.6 mg m-2, day 4, individual patients 4-6 in order
[8] = 0.6 mg m-2, day 4, mean of dose level
[9] = 1.2 mg m-2, day 1, individual patients 7-12 in order
[10] = 1.2 mg m-2, day 1, mean of dose level

CC[C@@]1(O)C(=O)OCc2c1cc1n(c2=O)Cc2c-1nc1cc3c(cc1c2CN1CCN(C)CC1)OCCO3 [GI147211, [7 - (methylpiperazinomethylene) - 10,11 - ethylene-dioxy-20(S)] camptothecin dihydrochloride]
AUCinf [1]: 4.93 ng·h/mL and 4.04 ng·h/mL and 4.77 ng·h/mL
Clearance, total plasma clearance [1]: 1014 ml min-1 m-2 and 1238 ml min-1 m-2 and 1048 ml min-1 m-2
Cmax [1]: 3.63 ng/mL and 4.27 ng/mL and 3.73 ng/mL
MRT [1]: 2.89 h and 1.66 h and 3.33 h
Vdss [1]: 161 l m-2 and 104 l m-2 and 194 l m-2
t1/2, elimination half-life [1]: 2.96 h and 1.99 h and 2.63 h
tmax [1]: 0.42 h
AUCinf, mean [2]: 4.58 ng·h/mL
Clearance, mean [2]: 1100 ml min-1 m-2
Cmax, mean [2]: 3.88 ng/mL
MRT, mean [2]: 2.63 h
Vdss, mean [2]: 153 l m-2
t1/2, mean [2]: 2.52 h
tmax, mean [2]: 0.42 h
AUCinf [3]: 6.19 ng·h/mL and 6.79 ng·h/mL and 7.46 ng·h/mL
Clearance, total plasma clearance [3]: 808 ml min-1 m-2 and 736 ml min-1 m-2 and 670 ml min-1 m-2
Cmax [3]: 4.73 ng/mL and 4.30 ng/mL and 5.11 ng/mL
MRT [3]: 4.62 h and 4.73 h and 5.30 h
Vdss [3]: 207 l m-2 and 199 l m-2 (2×)
t1/2, elimination half-life [3]: 4.82 h and 2.34 h and 3.81 h
tmax [3]: 0.25 h (2×) and 0.42 h
AUCinf, mean [4]: 6.81 ng·h/mL
Clearance, mean [4]: 738 ml min-1 m-2
Cmax, mean [4]: 4.71 ng/mL
MRT, mean [4]: 4.88 h
Vdss, mean [4]: 202 l m-2
t1/2, mean [4]: 3.65 h
tmax, mean [4]: 0.31 h
AUCinf [5]: 10.10 ng·h/mL and 15.63 ng·h/mL and 14.00 ng·h/mL
Clearance, total plasma clearance [5]: 990 ml min-1 m-2 and 640 ml min-1 m-2 and 714 ml min-1 m-2
Cmax [5]: 9.16 ng/mL and 9.41 ng/mL and 11.46 ng/mL
MRT [5]: 4.01 h and 3.74 h and 3.52 h
Vdss [5]: 223 l m-2 and 134 l m-2 and 140 l m-2
t1/2, elimination half-life [5]: 3.35 h and 2.81 h and 2.80 h
tmax [5]: 0.42 h
AUCinf, mean [6]: 13.25 ng·h/mL
Clearance, mean [6]: 781 ml min-1 m-2
Cmax, mean [6]: 10.01 ng/mL
MRT, mean [6]: 3.76 h
Vdss, mean [6]: 166 l m-2
t1/2, mean [6]: 2.98 h
tmax, mean [6]: 0.42 h
AUCinf [7]: 11.21 ng·h/mL and 15.10 ng·h/mL and 15.94 ng·h/mL
Clearance, total plasma clearance [7]: 892 ml min-1 m-2 and 662 ml min-1 m-2
Cmax [7]: 7.60 ng/mL and 8.13 ng/mL and 9.29 ng/mL
MRT [7]: 4.89 h and 5.38 h and 6.35 h
Vdss [7]: 246 l m-2 and 203 l m-2 and 224 l m-2
t1/2, elimination half-life [7]: 3.42 h and 3.78 h and 4.15 h
tmax [7]: 0.42 h (2×) and 0.25 h
AUCinf, mean [8]: 14.08 ng·h/mL
Clearance, mean [8]: 727 ml min-1 m-2
Cmax, mean [8]: 8.34 ng/mL
MRT, mean [8]: 5.54 h
Vdss, mean [8]: 224 l m-2
t1/2, mean [8]: 3.78 h
tmax, mean [8]: 0.36 h
AUCinf [9]: 17.57 ng·h/mL and 24.95 ng·h/mL and 16.70 ng·h/mL and 15.05 ng·h/mL and 19.86 ng·h/mL and 19.42 ng·h/mL
Clearance, total plasma clearance [9]: 1138 ml min-1 m-2 and 802 ml min-1 m-2 and 1198 ml min-1 m-2 and 1329 ml min-1 m-2 and 1007 ml min-1 m-2 and 1030 ml min-1 m-2
Cmax [9]: 17.33 ng/mL and 11.97 ng/mL and 15.99 ng/mL and 12.83 ng/mL and 14.11 ng/mL and 17.65 ng/mL
MRT [9]: 3.01 h and 5.18 h and 2.94 h and 3.04 h and 3.98 h and 2.66 h
Vdss [9]: 189 l m-2 and 237 l m-2 and 193 l m-2 and 223 l m-2 and 225 l m-2 and 149 l m-2
t1/2, elimination half-life [9]: 3.62 h and 4.04 h and 2.54 h and 2.40 h and 5.10 h and 2.97 h
tmax [9]: 0.42 h (5×) and 0.25 h
AUCinf, mean [10]: 18.93 ng·h/mL
Clearance, mean [10]: 1084 ml min-1 m-2
